Experimental data published in PMC7822874, “Chemoprotective antimalarials identified through quantitative high-throughput screening of Plasmodium blood and liver stage parasites” (Scientific Reports, 2021).
“Also recorded” adds a separate entry of the source. Where two headings read alike, the source gives them in different places.

Legend:
[1] = system: P. falciparum Dd2 (clone B2) asexual blood stage parasites; experiment: P. falciparum Dd2 asexual blood stage SYBR Green-I 72 h proliferation assay (qHTS); format: cell-based, Plasmodium falciparum; conditions: SYBR Green 72 h; for AC50: Plasmodium falciparum, DD2, 72 h
[2] = system: P. falciparum Dd2-B2 parasites; experiment: In vitro resistance selection under constant drug pressure; format: cell-based, Plasmodium falciparum
Method: Recently cloned P. falciparum Dd2-B2 parasites, cultured in duplicate flasks each harboring an inoculum of 2 × 10^9 parasites, were subjected to constant drug pressure from NCGC00473217 at 5 × AC50 or NCGC00374598 at 3 × AC50. […] Clones were then obtained by limiting dilution and three to four clones from each flask were expanded for profiling and sequencing.
Fresh uninfected RBCs (0.5% hematocrit) were added on day 7 and media was changed every other day. […] Resistant parasites were maintained under drug media at a volume of 50 mL until a high parasitemia (> 5%) was achieved. Aliquots of the bulk resistant cultures were frozen in cryovials before cloning by limiting dilution in 96-well plates (seeded at 0.25 or 0.5 parasites/well)[70]. After 3 weeks of cloning, we screened for positive wells by flow cytometry with SYBR Green-stained cells. […] Parasites were harvested by saponin lysis at the trophozoite stage and genomic DNA was extracted using the QIAamp DNA Blood Midi Kit (Qiagen, Germantown, MD)[71].

[3] = system: P. falciparum Dd2 Cytb F123L; experiment: SYBR Green ABS proliferation assay, NCGC00473217 selected clone G08; format: cell-based, Plasmodium falciparum
In short: (§1)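 72 h SYBR Green-I read; % response = relative growth vs controls. Clones from resistance selection, cloned by limiting dilution; 37 °C, 5% CO2/5% O2/90% N2.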

[4] = system: P. berghei-ANKA-GFP-LucCON liver stage parasites in HepG2-A16-CD81EGFP cells; experiment: P. berghei liver stage Pb-Luc assay, Method 1 (UCSD, 1536-well); format: cell-based, Plasmodium berghei; conditions: Plasmodium berghei
[5] = system: P. falciparum Dd2 Cytb G131S; experiment: SYBR Green ABS proliferation assay, NCGC00374598 selected clone C11; format: cell-based, Plasmodium falciparum; conditions: for AC50: Plasmodium falciparum
In short: as §1

Aqueous solubility = format: physicochemical; conditions: for solubility: aqueous media
Method: (§2) Pharmacokinetic modeling experiments, parallel artificial membrane permeability assay (PAMPA), solubility, and rat liver microsome stability assessment were performed on all synthetic compounds, as previously described[73]–[75].

[6] = Parallel artificial membrane permeability assay (PAMPA); format: in vitro ADME; conditions: for PAMPA pH7.4: pH 7.4
Method: as §2

[7] = system: luciferase-expressing P. berghei liver stage parasites in HepG2 cells; experiment: Inhibition of liver-stage development assay (ILSDA), Method 2 (WRAIR, 96-well); format: cell-based, Plasmodium berghei; conditions: for AC50: Plasmodium berghei
[8] = system: P. falciparum Dd2 Cytb V259L; experiment: SYBR Green ABS proliferation assay, NCGC00473217 selected clone F06; format: cell-based, Plasmodium falciparum; conditions: Plasmodium falciparum
In short: as §1

in vitro = conditions: human, HepG2-A16-CD81EGFP cells, uninfected
[9] = system: P. falciparum Dd2 Cytb A122D; experiment: SYBR Green ABS proliferation assay, NCGC00473217 selected clone F12; format: cell-based, Plasmodium falciparum; conditions: Plasmodium falciparum
In short: as §1

[10] = Rat liver microsomal stability (RLMS); conditions: rat liver microsomes; for half-life: rat
Method: as §2

HepG2 cells = experiment: HepG2 mammalian toxicity, CellTiter-Glo, 48 h; conditions: 48 h compound exposure
[11] = HepG2 mammalian toxicity, CellTiter-Glo, 48 h; conditions: human, HepG2 cells, HepG2 AC50 (mammalian cellular toxicity), 48 h compound exposure
[12] = system: P. falciparum Dd2 cytochrome b mutant lines; experiment: Drug response of drug-selected cytochrome b mutant lines versus parental Dd2-B2 (panel); format: cell-based, Plasmodium falciparum; conditions: all cytochrome b mutant lines vs Dd2-B2
Method: As resistance selection studies implicated the parasite cytochrome bc1 complex in mediating reduced parasite susceptibility to both NCGC00473217 and NCGC00374598, we leveraged these drug-selected parasites to test for altered drug response to a panel of antimalarial compounds.
The P. falciparum parasite Dd2 line was cultured in vitro using standard conditions. […] Tissue culture flasks and assay plates were incubated at 37 °C under a gas mixture of 5% CO2, 5% O2 and 90% N2. […] Significant differences were assessed using two-sided Student’s t-tests. All HTS assays were stopped and read at 72 h. Percent response values represent relative growth as judged by SYBR Green-I fluorescence intensity values normalized to controls.

[13] = WT Dd2-B2, read-out: AC50 Log[M] ± SD, Dd2-B2 (parental line) (converted)
[14] = approximate value in μM, read-out: AC50 [μM], Dd2-B2 (parental line) (converted)
[15] = Plasmodium falciparum, DD2, NCGC00473217 selected clone G08, highest concentration 29 µM, read-out: AC50 [μM], Cytb F123L (converted)
[16] = DD2, NCGC00374598 selected clone C11, read-out: AC50 [μM], Cytb G131S (converted)
[17] = DD2, NCGC00374598 selected clone, read-out: AC50 Log[M] ± SD, Cytb G131S (converted)
[18] = HepG2, 48 h, 48 h, firefly luciferase reporter P. berghei line, read-out: ILSDA AC50
[19] = DD2, NCGC00473217 selected clone F06, read-out: AC50 [μM], Cytb V259L (converted)
[20] = DD2, NCGC00473217 selected clone, read-out: AC50 Log[M] ± SD, Cytb V259L (converted)
[21] = DD2, NCGC00473217 selected clone F12, read-out: AC50 [μM], Cytb A122D (converted)
[22] = DD2, NCGC00473217 selected clone, read-out: AC50 Log[M] ± SD, Cytb A122D (converted)
[23] = Plasmodium falciparum, DD2, NCGC00473217 selected clone, read-out: AC50 Log[M] ± SD, Cytb F123L (converted)
[24] = HepG2, 48 h, 48 h, read-out: ILSDA AC50 (Method 2)

In the case of CCCN1C(CC(C)C)=NS(=O)(=O)c2cc(NC(=O)c3cccs3)ccc21 [NCGC00473217], the AC50 [1, 13] is reported as 2.19e-07 M, the AC50 [1, 14] is reported as 2.19e-07 M and the Recrudescence under pressure ([2]; 2 × 10^9 parasites, 5 × AC50 (NCGC00473217) or 3 × AC50 (NCGC00374598)) is reported as 14 to 17 days. The “AC50 increase of selected clones” value ([2]; clones from selections with the same compound) was 10 to 60 fold, the “AC50 [μM], Cytb F123L” value ([3]; NCGC00473217 selected clone G08, highest concentration 29 µM) was “greater than the maximum concentration tested” and the AC50 ([3]; NCGC00473217 selected clone G08, highest concentration 29 µM, read-out: AC50 [μM], Cytb F123L (converted)) was > 29 µM. For the same compound, the AC50 [3, 15] was > 29 µM, the AC50 ([3]; Plasmodium falciparum, DD2, Suppl Table 6, read-out: AC50 (mM), Dd2 Cytb F123L) was > 29 µM and the “IC50 shift, F123L clone” value ([3]; versus parental) was > 500 fold. The AC50 ([4]; UCSD, read-out: liver stage AC50 (Method 1)) was 3 nM, the inhibition at 1 µM ([4]; 1 μM) was > 90% and the inhibition at 3 µM ([4]; 3 μM) was > 95%. For the same compound, the AC50 [5, 16] was 0.68 µM, the AC50 [5, 17] was 0.676 µM and the AC50 ([5]; DD2, Suppl Table 6, read-out: AC50 (mM), Dd2 Cytb G131S) was 0.676 µM. The solubility (Aqueous solubility) was < 1 µg/mL, the “PAMPA pH7.4” value [6] was 222 1e-6 cm/s and the “Activity direction (Decrease / Inactive)” value ([7]; P. berghei liver stage, Method 2, dose response) was “Decrease”. The AC50 [7, 18] was 112 nM, the AC50 ([7]; HepG2, P. berghei liver stage, Method 2, dose response, read-out: Log AC50 (converted)) was 112 nM and the AC50 [8, 19] was 1.18 µM. It also gave an AC50 [8, 20] of 1.17 µM, an AC50 ([8]; DD2, Suppl Table 6, read-out: AC50 (mM), Dd2 Cytb V259L) of 1.18 µM and a viability at 66 h (in vitro) of 106%. For the same compound, the AC50 [9, 21] was 2.82 µM, the AC50 [9, 22] was 2.82 µM and the AC50 ([9]; DD2, Suppl Table 6, read-out: AC50 (mM), Dd2 Cytb A122D) was 2.82 µM. For the same compound, the half-life [10] was 5 min.
For CCCN1C(c2ccccc2)=NS(=O)(=O)c2cc(NC(=O)c3ccc(F)cc3)ccc21 [NCGC00532331], the AC50 [1, 13] was 8.91e-07 M, the AC50 [1, 14] was 8.94e-07 M and the “AC50 [μM], Dd2-B2 (parental line)” value ([1]; approximate value in μM) was “sub-micromolar”. For the same compound, the “HepG2 AC50 (mammalian cellular toxicity)” value (HepG2 cells) was “Neither compound was cytotoxic”, the AC50 at 48 h [11] was > 20 µM and the AC50 [3, 15] was 3.3 µM. For the same compound, the AC50 [3, 23] was 3.31 µM, the “AC50 [μM], Cytb G131S” value ([5]; NCGC00374598 selected clone C11) was “maintained potency” and the AC50 [5, 16] was 0.71 µM. For the same compound, the AC50 [5, 17] was 0.708 µM, the “Aqueous Solubility” value (Aqueous solubility) was “poor aqueous solubility” and the solubility (Aqueous solubility) was < 1 µg/mL. The PAMPA permeability [6] was “good PAMPA permeability; also recorded: favorable”, the “PAMPA pH7.4” value [6] was 896 1e-6 cm/s and the AC50 [7, 18] was 48 nM. The AC50 [7, 24] was < 50 nM, the AC50 [8, 19] was 2.33 µM and the AC50 [8, 20] was 2.34 µM. For the same compound, the AC50 [9, 21] was 1.85 µM, the AC50 [9, 22] was 1.86 µM and the “RLMS T1/2” value [10] was “favorable”. The half-life [10] was > 30 min.
With CCCN1C(c2ccccc2)=NS(=O)(=O)c2cc(NC(=O)c3cccs3)ccc21 [NCGC00532332] the AC50 [1, 13] was 5.89e-07 M, the AC50 [1, 14] was 5.86e-07 M and the “AC50 [μM], Dd2-B2 (parental line)” value ([1]; approximate value in μM) was “sub-micromolar”. For the same compound, the “HepG2 AC50 (mammalian cellular toxicity)” value (HepG2 cells) was “Neither compound was cytotoxic”, the AC50 at 48 h [11] was > 20 µM and the AC50 [3, 15] was 2 µM. The AC50 [3, 23] was 2 µM, the AC50 [5, 16] was 0.861 µM and the AC50 [5, 17] was 0.851 µM. For the same compound, the “Aqueous Solubility” value (Aqueous solubility) was “poor aqueous solubility”, the solubility (Aqueous solubility) was < 1 µg/mL and the PAMPA permeability [6] was “high permeability; also recorded: favorable”. The “PAMPA pH7.4” value [6] was 714 1e-6 cm/s, the AC50 [7, 18] was 39 nM and the AC50 [7, 24] was < 50 nM. It also gave an AC50 [8, 19] of 4.31 µM, an AC50 [8, 20] of 4.27 µM and an AC50 [9, 21] of 1.5 µM. For the same compound, the AC50 [9, 22] was 1.51 µM, the “RLMS T1/2” value [10] was “favorable” and the half-life [10] was 22.6 min.
For CN1C(c2ccccc2)=NS(=O)(=O)c2cc(NC(=O)c3ccc(F)cc3)ccc21 [NCGC00651719], the AC50 [1, 14] was > 2.9e-05 M, the AC50 [3, 15] was > 29 µM and the AC50 [5, 16] was > 29 µM. The solubility (Aqueous solubility) was < 1 µg/mL, the “PAMPA pH7.4” value [6] was 3.25 1e-6 cm/s and the AC50 [8, 19] was > 29 µM. The AC50 [9, 21] was > 29 µM and the half-life [10] was > 30 min.
In the case of CCN(CC)CCCC(C)Nc1ccnc2cc(Cl)ccc12 (centres unmarked) [chloroquine], the “change in susceptibility across drug-selected lines” value [12] is reported as “no observed change in susceptibility”.
